According to the supplement of paper PMC10307832:

These cell lines were tested with Cc1ccc(NC(=O)c2ccc(CN3CCN(C)CC3)cc2)cc1Nc1nc(-c2cccnc2)cs1 [Masitinib] + CS(=O)(=O)CCNCc1ccc(-c2ccc3ncnc(Nc4ccc(OCc5cccc(F)c5)c(Cl)c4)c3c2)o1 [Lapatinib] (partner 2 µM) (assay: relative viability (nuclei count vs DMSO), 5 days (fraction); higher = more cells survive). Details: first compound 0.01 µM.
In short: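 A single step with final 0.05% Triton X-100, 1% formaldehyde and 1 ug/ml Hoechst fixed the cells and stained nuclei 5 days after treatment. Lung cancer cell lines in 1536-well plates had been treated by pin tool the day after seeding with one drug alone or a fixed anchor-drug dose plus five library-drug doses (not always all listed) in √10 steps, and nuclei were counted on 4× images. Relative viability is the ratio of nuclei in treated wells to nuclei in vehicle wells, taken as the median of duplicate plates.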

Cell Line | relative viability
NCI-H2087 | 0.757
Calu-6 | 1.05
HCC-366 | 0.731
NCI-H1703 | 0.764
NCI-H647 | 0.869
LK-2 | 1.06
NCI-H2126 | 0.773
NCI-H1793 | 0.631
COR-L23 | 0.715
COR-L 105 | 0.298
LOU-NH91 | 0.781
NCI-H358 | 0.465
NCI-H3122 | 1.01
HOP-62 | 0.814
HCC-44 | 0.911
A549 | 0.995
LXF-289 | 0.757
BEN | 0.774
HARA | 0.582
HCC-78 | 0.871
LCLC-97TM1 | 0.767
NCI-H2023 | 0.628
NCI-H460 | 0.996
NCI-H727 | 0.923
NCI-H520 | 0.949
NCI-H2405 | 0.921
SW 1573 | 0.986
NCI-H1395 | 1.37

Same assay, conditions: first compound 0.03162 µM

Cell Line | relative viability
NCI-H2087 | 1.06
Calu-6 | 1.01
HCC-366 | 1.1
NCI-H1703 | 0.857
NCI-H647 | 0.919
LK-2 | 0.836
NCI-H2126 | 0.724
NCI-H1793 | 0.633
H3255 | 0.268
COR-L23 | 1.2
COR-L 105 | 0.379
LOU-NH91 | 0.633
NCI-H358 | 0.479
NCI-H3122 | 1.04
HOP-62 | 1.11
HCC-44 | 0.98
A549 | 0.948
LXF-289 | 0.879
BEN | 0.675
HARA | 0.78
HCC-78 | 0.62
LCLC-97TM1 | 1.13
NCI-H2023 | 0.823
A-427 | 1.02
NCI-H460 | 1.13
NCI-H727 | 0.95
NCI-H1755 | 0.998
NCI-H2405 | 1.09
SW 1573 | 1.17
NCI-H1395 | 1.16

Same assay, conditions: first compound 0.1 µM

Cell Line | relative viability
NCI-H2087 | 0.77
Calu-6 | 1.25
HCC-366 | 0.785
NCI-H1703 | 0.436
NCI-H647 | 1.07
LK-2 | 1.12
NCI-H2126 | 0.734
NCI-H1793 | 0.594
H3255 | 0.243
COR-L23 | 0.896
COR-L 105 | 0.4
IA-LM | 0.891
LOU-NH91 | 0.786
NCI-H358 | 0.492
NCI-H3122 | 1.02
HOP-62 | 0.854
HCC-44 | 1.05
A549 | 1.05
LXF-289 | 0.938
BEN | 0.928
